From the supplement of paper PMC10307832

Tests used:
Assay in all cases: relative viability (nuclei count vs DMSO), 5 days (fraction); higher = more cells survive
IDH-C35 + Palbociclib = compound: Cc1ccccc1C(C(=O)NC1CCCCC1)N(C(=O)Cn1ccnc1C)c1cccc(F)c1 [IDH-C35] + CC(=O)c1c(C)c2cnc(Nc3ccc(N4CCNCC4)cn3)nc2n(C2CCCC2)c1=O [Palbociclib] (partner 0.5 µM)
How it was run: (§1)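 Lung cancer cell lines in 1536-well plates were dosed by pin tool the day after seeding, either with one drug alone or with a fixed anchor-drug dose plus five library-drug doses (not always all listed) in √10 steps. After 5 days, cells were fixed and their nuclei stained in one step (final 0.05% Triton X-100, 1% formaldehyde, 1 ug/ml Hoechst), then counted on 4× images. Relative viability is the nuclei count in treated wells divided by that in vehicle wells. Values are medians of duplicate plates.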

IDH-C35 + AZD7762 = compound: Cc1ccccc1C(C(=O)NC1CCCCC1)N(C(=O)Cn1ccnc1C)c1cccc(F)c1 [IDH-C35] + NC(=O)Nc1cc(-c2cccc(F)c2)sc1C(=O)N[C@H]1CCCNC1 [AZD7762] (partner 0.2 µM)
How it was run: as §1

[1] = compound: CC1=C(C(=NN1)C)CC2=C(C3=C(S2)N(C(=O)N(C3=O)C)CC(C)C)C(=O)N4C[C@@H](CO4)O + Cc1nc(NC(=O)N2CCC[C@H]2C(N)=O)sc1-c1ccnc(C(C)(C)C(F)(F)F)c1 [Alpelisib] (partner 2 µM)
How it was run: as §1

IDH-C35 + Bortezomib = compound: Cc1ccccc1C(C(=O)NC1CCCCC1)N(C(=O)Cn1ccnc1C)c1cccc(F)c1 [IDH-C35] + CC(C)C[C@H](NC(=O)[C@H](Cc1ccccc1)NC(=O)c1cnccn1)B(O)O [Bortezomib] (partner 0.002 µM)
How it was run: as §1

| Cell Line | relative viability (IDH-C35 + Palbociclib; first compound 0.08 µM) | relative viability (IDH-C35 + Palbociclib; first compound 0.253 µM) | relative viability (IDH-C35 + Palbociclib; first compound 0.8 µM) | relative viability (IDH-C35 + Palbociclib; first compound 2.53 µM) | relative viability (IDH-C35 + Palbociclib; first compound 8 µM) | relative viability (IDH-C35 + AZD7762; first compound 0.08 µM) | relative viability (IDH-C35 + AZD7762; first compound 0.253 µM) | relative viability (IDH-C35 + AZD7762; first compound 0.8 µM) | relative viability (IDH-C35 + AZD7762; first compound 2.53 µM) | relative viability (IDH-C35 + AZD7762; first compound 8 µM) | relative viability ([1]; first compound 0.0025 µM) | relative viability ([1]; first compound 0.007906 µM) | relative viability ([1]; first compound 0.025 µM) | relative viability ([1]; first compound 0.07906 µM) | relative viability ([1]; first compound 0.25 µM) | relative viability (IDH-C35 + Bortezomib; first compound 0.08 µM) | relative viability (IDH-C35 + Bortezomib; first compound 0.253 µM) | relative viability (IDH-C35 + Bortezomib; first compound 0.8 µM) | relative viability (IDH-C35 + Bortezomib; first compound 2.53 µM) | relative viability (IDH-C35 + Bortezomib; first compound 8 µM) |
| --- | --- | --- | --- | --- | --- | --- | --- | --- | --- | --- | --- | --- | --- | --- | --- | --- | --- | --- | --- | --- |
| NCI-H522 | 1.07 | 1.07 | 1.01 | 0.944 | 0.99 | 0.845 | 0.934 | 0.868 | 0.788 | 0.985 | – | – | – | – | – | – | – | – | – | – |
| HCC-15 | 0.791 | 0.695 | 0.748 | – | 0.67 | 1.33 | 1.1 | 1.08 | – | 1.35 | 0.953 | 0.914 | 0.901 | 0.854 | 0.942 | 1.03 | 0.958 | 1.01 | 0.936 | 0.982 |
| A-427 | 0.529 | 0.527 | 0.511 | 0.512 | 0.545 | 0.709 | 0.725 | 0.687 | 0.679 | 0.707 | 1.02 | 1.21 | 1.08 | 1.03 | 1.07 | 0.977 | 1.04 | 1.01 | 0.934 | 0.952 |
| NCI-H2228 | 0.795 | 0.728 | 0.738 | 0.723 | 0.728 | – | – | – | – | – | 0.911 | 0.673 | 1.01 | 0.722 | 0.9 | 0.968 | 0.857 | 0.898 | 1.09 | 0.818 |
| NCI-H1734 | 0.359 | 0.33 | 0.352 | 0.325 | 0.305 | 0.575 | 0.623 | 0.532 | 0.49 | 0.551 | 0.692 | 0.771 | 0.667 | 0.757 | 0.677 | 1.06 | 1.17 | 0.85 | 0.892 | 0.914 |
| PC-14 | 0.515 | 0.511 | 0.484 | 0.573 | 0.441 | 0.339 | 0.427 | 0.32 | 0.302 | 0.387 | 1.05 | 0.877 | 0.886 | 0.974 | 0.975 | 0.983 | 0.897 | 0.792 | 0.834 | 0.767 |
| NCI-H1915 | 0.51 | 0.527 | 0.506 | 0.556 | 0.529 | 0.674 | 0.7 | 0.696 | 0.663 | 0.716 | 1.09 | 1.11 | 1.1 | 1.15 | 1.07 | 0.939 | 0.977 | 0.963 | 0.961 | 0.995 |
| NCI-H1666 | 0.678 | 0.674 | 0.607 | 0.682 | 0.645 | 0.934 | 1.03 | 0.795 | 0.712 | 0.94 | 1.06 | 1.01 | 1.02 | 1.13 | 0.953 | 0.769 | 0.881 | 0.914 | 0.872 | 0.691 |
| HCC-366 | 0.374 | 0.399 | 0.381 | 0.38 | 0.321 | 0.306 | 0.306 | 0.233 | 0.227 | 0.281 | 0.489 | 0.475 | 0.396 | 0.54 | 0.49 | 1.07 | 1.01 | 1.06 | 0.987 | 0.979 |
| SK-MES-1 | 0.307 | 0.286 | 0.301 | 0.317 | 0.271 | – | – | – | – | – | 0.964 | 0.997 | 1.04 | 0.878 | 1.01 | – | – | – | – | – |
| SW 1573 | 0.43 | 0.432 | 0.388 | 0.462 | 0.353 | – | – | – | – | – | 0.756 | 0.699 | 0.764 | 0.715 | 0.917 | 1.06 | 1.19 | 0.967 | 1.06 | 1.05 |
| NCI-H661 | 0.433 | 0.407 | 0.392 | 0.41 | 0.384 | – | – | – | – | – | 0.914 | 0.803 | 0.559 | 0.654 | 0.421 | 0.953 | 0.809 | 0.837 | 0.828 | 0.761 |
| PC-3 [JPC-3] | 0.563 | 0.532 | 0.558 | 0.587 | 0.534 | 0.75 | 0.867 | 0.86 | 0.844 | 0.78 | 1.02 | 1.03 | 1 | 1.01 | 1.06 | 0.854 | 0.868 | 0.849 | 0.856 | 0.813 |
| Calu-6 | – | – | – | – | – | – | – | – | – | – | 1.3 | 0.898 | 0.892 | 0.895 | 1.09 | 0.971 | 1 | 1.04 | 1.07 | 0.955 |
| LC-2-ad | 0.527 | 0.476 | 0.531 | 0.49 | 0.494 | 0.878 | 0.846 | 0.793 | 0.837 | 0.804 | 0.985 | 0.85 | 0.842 | 0.897 | 0.921 | 1.01 | 1.03 | 1.01 | 1.04 | 0.935 |
| CAL-12T | 0.524 | 0.575 | 0.414 | 0.525 | 0.408 | 0.545 | 0.569 | 0.686 | 0.589 | 0.577 | 1.27 | 1.3 | 1.03 | 1.06 | 1.58 | 0.975 | 0.863 | 1.03 | 1.05 | 0.85 |
| RERF-LC-KJ | 1.08 | 1.03 | 0.991 | 1.1 | 1.09 | 1.03 | 1.03 | 0.982 | 0.794 | 1.01 | 0.977 | 0.939 | 0.92 | 0.775 | 0.964 | 1.09 | 1.08 | 1.1 | 1.2 | 1.19 |
| NCI-H1650 | 0.381 | 0.329 | 0.355 | 0.422 | 0.4 | – | – | – | – | – | – | – | – | – | – | 0.227 | 0.205 | 0.229 | 0.213 | 0.213 |
